Source: patent US6007834A (priority 1997, dated 1999)

Columns and labels:
[1] = Blood plasma melatonin concentrations and pharmacokinetics in healthy male volunteers, by radioimmunoassay (cross-over study); type: in vivo, human; conditions: for Tmax: human, plasma
Protocol: An open randomized, four treatment (treatments A, B, C and D below), cross-over study involving 8 healthy male volunteers was carried out. Before drug administration, the subjects were fasted overnight for at least 10 hours. The administered formulations were as follows:
A: 100 μl water, intranasal (placebo);

[2] = cited from earlier work
nasal mucosa [3] = conditions: in vivo
nasal mucosa [4] = conditions: propylene glycol in place of ethanol; cited from earlier work

COc1ccc2[nH]cc(CCNC(C)=O)c2c1 [melatonin, N-acetyl-5-methoxytryptamine]
Cmax, times higher than that resulting from the oral dose ([1]; 0.2 mg nasal vs 2.5 mg oral): about 5 times | amount of melatonin absorbed, 0.2 mg nasal dose vs 2.5 mg oral dose ([1]; 0.2 mg nasal vs 2.5 mg oral): About the same amount | amount of melatonin absorbed, 0.4 mg nasal dose vs 0.2 mg nasal dose ([1]; 0.4 mg nasal vs 0.2 mg nasal): proportional | Cmax, times higher than that resulting from the oral dose ([1]; 0.4 mg nasal vs 2.5 mg oral): ~11 times | dose proportionality of peak plasma concentrations (Cmax) ([1]; 0.2 and 0.4 mg nasal doses): proportional | Tmax ([1]; po, 2.5 mg): 1.5 h | Tmax ([1]; 0.2 and 0.4 mg nasal doses): < 0.167 h | rate of absorption ([1]; nasally administered): absorbed extremely rapidly | solubility in water [2]: low solubility

OCC(O)CO [glycerol]
irritation of the nasal mucosa (nasal mucosa [3]): does not lead to irritation of the nasal mucosa | toxicity towards the epithelial membrane (epithelial membrane): does not exert toxicity towards the epithelial membrane

CC(O)CO (stereo not drawn) [propylene glycol]
toxicity to the nasal mucosa (nasal mucosa [4]): adversely affects the nasal mucosa
